Data from patent publication US9315499B2, “Cytomegalovirus inhibitor compounds” (Boehringer Ingelheim International GmbH, priority 2012, dated 2016).

Biological target: HCMV polymerase (UL54) (Human cytomegalovirus (strain AD169) (HHV-5) (Human herpesvirus 5), UniProt P08546)
Test: biochemical
Conditions: LANCE TR-FRET, purified recombinant GST-UL54; read-out: Example C (IC50 nM)
Experimental: HCMV Polymerase LANCE TR-FRET Assay
This non-radiometric assay determines the enzymatic activity of purified recombinant HCMV polymerase (UL54) using a Digoxigenin-labeled oligonucleotide priming a heteropolymeric template. The enzymatic activity is determined by incorporating Biotin-dUTP in the nascent complementary strand. The signal is generated by Fluorescence Resonance Energy Transfer from the donor (Anti-Digoxigenin-Europium Chelate binding with the primer) to the acceptor Streptavidin-AlloPhycoCyanin (SA-APC) binding to the biotin of the labeled nucleotides incorporated in proximity.
Serial dilutions of the DMSO stock compound solution are performed using DMSO in columns 2-11 and 14-23. DMSO alone is present in columns 1, 12, 13 and 24. Three μL of the DMSO serial dilutions is transferred and diluted using 21 μL of compound dilution buffer (10 mM Hepes pH 7.5, 25 mM KCl, 5 mM MgCl2, 1 mM TCEP) to obtain 12.5% DMSO. 4 μL per well of the 12.5% DMSO serial dilution compound solution is added to the assay plate. The plate is centrifuged at 200×g for 30 sec. […]
To perform the assay, 3 μL of the enzyme solution is added to columns 2-12 and 14-24. […] The signal is read on the Envision plate reader (Perkin-Elmer) or equivalent.

Structure (SMILES) | IC50 [nM]
Nc1c(Br)cnc2c1cc(C(=O)NCc1ccc(Cl)cc1)c(=O)n2CC(=O)N1CCC(CO)C1 (centres unmarked) [Compound 6022] | 83
O=C(NCc1ccc(Cl)cc1)c1cc2cccnc2n(CC(=O)N2CCC(C(=O)O)C2)c1=O (centres unmarked) [Compound 1029] | 6200
